Data from paper PMC8286840, “Identifying SARS-CoV-2 antiviral compounds by screening for small molecule inhibitors of Nsp3 papain-like protease” (Biochemical Journal, 2021).
Structures can show the parent of a compound that is named as a salt. Where two headings read alike, the source gives them in different places. Where a SMILES comes first, the peptide text is derived from it.

Legend:
[1] = target: T1, SARS-CoV-2 PLpro (nsp3 1564–1878) (Severe acute respiratory syndrome coronavirus 2, UniProt P0DTD1); assay: biochemical; parameters: FRET-quenched peptide (Pro3) cleavage by PLpro, 10 min pre-incubation, slope over 20 min, normalised to no-compound control; details: low concentration screen, read-out: % of control remaining
[2] = target: T1, SARS-CoV-2 PLpro (nsp3 1564–1878); assay: biochemical; parameters: FRET-quenched peptide (Pro3) cleavage by PLpro, 10 min pre-incubation, slope over 20 min, normalised to no-compound control; details: high concentration screen, read-out: % of control remaining

SMILES: CN(C)CC(=O)Nc1ccc2[nH]c(=O)c3ccccc3c2c1 [PJ-34]
- remaining activity at 1.25 µM ([1]; Well no.=906): 99.3%
- remaining activity at 3.75 µM ([2]; Well no.=906): 95.6%

SMILES: COc1cc(O)c(CC=C(C)C)c(O)c1C(=O)/C=C/c1ccc(O)cc1 [Xanthohumol]
- remaining activity at 1.25 µM ([1]; Well no.=8578): 106%
- remaining activity at 3.75 µM ([2]; Well no.=8578): 102%

SMILES: CN(C)c1ccccc1CN1CCCN(Cc2ccccc2N(C)C)C1c1ccncc1 [2-[(3-[2-(dimethylamino)benzyl]-2-(4-pyridinyl)tetrahydro-1(2H)-pyrimidinyl)methyl]-N,N-dimethylaniline]
- remaining activity at 1.25 µM ([1]; Well no.=5454): 96.1%
- remaining activity at 3.75 µM ([2]; Well no.=5454): 100%

SMILES: O=c1cc(C(Cl)(Cl)Cl)oc2ccc(Cl)cc12 [ST034307]
- remaining activity at 1.25 µM ([1]; Well no.=7185): 103%
- remaining activity at 3.75 µM ([2]; Well no.=7185): 95.4%

SMILES: C[C@H](CCC(=O)NCCS(=O)(=O)O)[C@H]1CC[C@H]2[C@@H]3[C@@H](O)C[C@@H]4C[C@H](O)CC[C@]4(C)[C@H]3CC[C@]12C [Tauroursodeoxycholic Acid (TUDCA)]
- remaining activity at 1.25 µM ([1]; Well no.=8200): 109%
- remaining activity at 3.75 µM ([2]; Well no.=8200): 107%

SMILES: C[N+]1(C)[C@@H]2C[C@@H](OC(=O)C(O)(c3cccs3)c3cccs3)C[C@H]1[C@@H]1O[C@@H]12 [Tiotropium (Bromide)]
- remaining activity at 1.25 µM ([1]; Well no.=7533): 96.7%
- remaining activity at 3.75 µM ([2]; Well no.=7533): 95.1%

SMILES: CCCCCCCCc1ccc(CCC(N)(CO)CO)cc1 [2-amino-2-[2-(4-octylphenyl)ethyl]-1,3-propanediol hydrochloride]
- remaining activity at 1.25 µM ([1]; Well no.=6045): 93.4%
- remaining activity at 3.75 µM ([2]; Well no.=6045): 95.1%

SMILES: CCN1CCCC1CNC(=O)c1cc(S(=O)(=O)CC)c(N)cc1OC (stereo not drawn) [Amisulpride]
- remaining activity at 1.25 µM ([1]; Well no.=2275): 93.3%
- remaining activity at 1.25 µM ([1]; Well no.=8149): 107%
- remaining activity at 3.75 µM ([2]; Well no.=2275): 97.7%
- remaining activity at 3.75 µM ([2]; Well no.=8149): 107%

SMILES: Nc1ccccc1C(=O)C[C@H](N)C(=O)O [L-Kynurenine]
- remaining activity at 1.25 µM ([1]; Well no.=7221): 95.5%
- remaining activity at 3.75 µM ([2]; Well no.=7221): 92%

SMILES: COC(=O)[C@H](Cc1ccccc1)NC(=O)[C@@H](N)CC(=O)O [Aspartame] (H-Asp-Phe-OMe)
- remaining activity at 1.25 µM ([1]; Well no.=5048): 100%
- remaining activity at 1.25 µM ([1]; Well no.=7302): 102%
- remaining activity at 3.75 µM ([2]; Well no.=5048): 101%
- remaining activity at 3.75 µM ([2]; Well no.=7302): 102%

SMILES: COc1cc(C=O)ccc1O [Vanillin]
- remaining activity at 1.25 µM ([1]; Well no.=7455): 103%
- remaining activity at 3.75 µM ([2]; Well no.=7455): 106%

SMILES: Cc1ccc(-c2n[nH]c3c2C(c2cccc(O)c2)N(c2ccc(C(=O)O)cc2)C3=O)cc1 (stereo not drawn) [CID 16020046]
- remaining activity at 1.25 µM ([1]; Well no.=7821): 96.2%
- remaining activity at 3.75 µM ([2]; Well no.=7821): 102%

SMILES: Cc1c(Nc2ncccc2C(=O)O)cccc1C(F)(F)F [Flunixin meglumin]
- remaining activity at 1.25 µM ([1]; Well no.=5094): 103%
- remaining activity at 3.75 µM ([2]; Well no.=5094): 108%

SMILES: CCN1C(=O)C=CC1=O [N-Ethylmaleimide]
- remaining activity at 1.25 µM ([1]; Well no.=461): 102%
- remaining activity at 1.25 µM ([1]; Well no.=4101): 88.4%
- remaining activity at 3.75 µM ([2]; Well no.=461): 101%
- remaining activity at 3.75 µM ([2]; Well no.=4101): 95.8%

SMILES: O=C(O)Cc1c[nH]c2ccc(O)cc12 [5-Hydroxyindolacetic acid]
- remaining activity at 1.25 µM ([1]; Well no.=758): 91.7%
- remaining activity at 3.75 µM ([2]; Well no.=758): 92.8%

SMILES: C=C[C@H]1CN2CC[C@H]1C[C@@H]2[C@@H](O)c1ccnc2ccc(OC)cc12 [Quinidine sulfate]
- remaining activity at 1.25 µM ([1]; Well no.=1363): 101%
- remaining activity at 3.75 µM ([2]; Well no.=1363): 105%

SMILES: Oc1ccc(-c2nc(-c3ccc(F)cc3)c(-c3ccncc3)[nH]2)cc1 [SB 202190]
- remaining activity at 1.25 µM ([1]; Well no.=2614): 95%
- remaining activity at 3.75 µM ([2]; Well no.=2614): 95.5%

SMILES: CCCCCCCCCCCCCCCCCCCCCCCC(=O)O [Tetracosanoic acid]
- remaining activity at 1.25 µM ([1]; Well no.=4502): 92.1%
- remaining activity at 3.75 µM ([2]; Well no.=4502): 94.2%

SMILES: Cc1ccc2c(c1)C(N1CCN(C)CC1)=Nc1cccnc1N2 [JL-18]
- remaining activity at 1.25 µM ([1]; Well no.=781): 107%
- remaining activity at 3.75 µM ([2]; Well no.=781): 103%

SMILES: O=C(O)c1cc(C(F)(F)F)ccc1N1CC[C@H](OCc2ccccn2)C1 [XEN445]
- remaining activity at 1.25 µM ([1]; Well no.=8574): 105%
- remaining activity at 3.75 µM ([2]; Well no.=8574): 109%

SMILES: CC(=O)Oc1ccc(C(c2ccc(OC(C)=O)cc2)c2ccccn2)cc1 [Bisacodyl]
- remaining activity at 1.25 µM ([1]; Well no.=2175): 105%
- remaining activity at 3.75 µM ([2]; Well no.=2175): 102%

SMILES: N#CC(=C(/N)Sc1ccccc1N)/C(C#N)=C(\N)Sc1ccccc1N [U0126 - 1,4-Diamino-2,3-dicyano-1,4-bis[2-aminophenylthio]butadiene]
- remaining activity at 1.25 µM ([1]; Well no.=2346): 96.1%
- remaining activity at 3.75 µM ([2]; Well no.=2346): 96.8%

SMILES: Cn1cnc2c(ncn2[C@@H]2O[C@H](CO)[C@@H](O)[C@H]2O)c1=N [1-Methyladenosine]
- remaining activity at 1.25 µM ([1]; Well no.=7121): 102%
- remaining activity at 3.75 µM ([2]; Well no.=7121): 98.5%

SMILES: O=C1CSC(c2ccccc2Cl)c2cc(Cl)ccc2N1 (stereo not drawn) [CGP-37157]
- remaining activity at 1.25 µM ([1]; Well no.=5845): 106%
- remaining activity at 3.75 µM ([2]; Well no.=5845): 106%

SMILES: CC(=O)CC/C=C(\C)CC/C=C(\C)CC/C=C(\C)CCC=C(C)C [Geranylgeranylacetone]
- remaining activity at 1.25 µM ([1]; Well no.=6123): 96.8%
- remaining activity at 3.75 µM ([2]; Well no.=6123): 95.3%

SMILES: COC(=O)Nc1nc2cc(C(=O)c3cccs3)ccc2[nH]1 [Nocodazole]
- remaining activity at 1.25 µM ([1]; Well no.=824): 99.3%
- remaining activity at 1.25 µM ([1]; Well no.=6258): 96.5%
- remaining activity at 3.75 µM ([2]; Well no.=824): 101%
- remaining activity at 3.75 µM ([2]; Well no.=6258): 94.1%

SMILES: CN1C(=O)/C(=C2/C(=O)Nc3ccccc32)c2ccccc21 [Meisoindigo]
- remaining activity at 1.25 µM ([1]; Well no.=6772): 94.5%
- remaining activity at 3.75 µM ([2]; Well no.=6772): 95%

SMILES: Oc1cc(O)c2c(c1)O[C@H](c1ccc(O)c(O)c1)[C@H](O)C2 [(-)-Epicatechin]
- remaining activity at 1.25 µM ([1]; Well no.=3348): 96.9%
- remaining activity at 3.75 µM ([2]; Well no.=3348): 98.5%

SMILES: CO[C@H]1CC[C@@H](O[C@H]2C[C@H]([C@]3(C)CC[C@]4(C[C@H](O)[C@@H](C)[C@@H]([C@@H](C)/C=C(\C)C(=O)[C@H](C)C[C@H](C)C(=O)O)O4)O3)O[C@]3(O[C@@H]([C@H]4O[C@@](O)(CO)[C@H](C)C[C@@H]4C)C[C@@H]3C)[C@@H]2C)O[C@@H]1C [Nanchangmycin]
- remaining activity at 1.25 µM ([1]; Well no.=4861): 101%
- remaining activity at 3.75 µM ([2]; Well no.=4861): 104%

SMILES: CC(C)C[C@H](NC(=O)[C@@H](COC(C)(C)C)NC(=O)[C@H](Cc1ccc(O)cc1)NC(=O)[C@H](CO)NC(=O)[C@H](Cc1c[nH]c2ccccc12)NC(=O)[C@H](Cc1cnc[nH]1)NC(=O)[C@@H]1CCC(=O)N1)C(=O)N[C@@H](CCCNC(=N)N)C(=O)N1CCC[C@H]1C(=O)NNC(N)=O [Goserelin (acetate)]
- remaining activity at 1.25 µM ([1]; Well no.=7338): 97.1%
- remaining activity at 3.75 µM ([2]; Well no.=7338): 95%

SMILES: COc1cccc(CCc2ccccc2OCC(CN(C)C)OC(=O)CCC(=O)O)c1 (stereo not drawn) [Sarpogrelate (hydrochloride)]
- remaining activity at 1.25 µM ([1]; Well no.=6228): 106%
- remaining activity at 3.75 µM ([2]; Well no.=6228): 96.1%

SMILES: COC(=O)[C@H]1[C@H]2C[C@H]3c4[nH]c5ccccc5c4CCN3C[C@H]2CC[C@@H]1O [Rauwolscine]
- remaining activity at 1.25 µM ([1]; Well no.=3128): 99%
- remaining activity at 3.75 µM ([2]; Well no.=3128): 99.4%
